Source: patent US9840498B2, “Substituted quinazolin-4-one derivatives” (NOVARTIS AG, priority 2013, dated 2017)

Legend:
Conditions in all cases: enzymatic assay
PI3K alpha = PI3K alpha (Homo sapiens (Human), UniProt P42336); assay: Biochemical assay for PI3Kalpha (Kinase-Glo format)
Description: 1.1 Generation of Gene Constructs, Protein Expression and Purification
For the enzymatic assays, the preparation of PI3K gene constructs, protein expression and purification for HTS are described in WO2012/004299.
1.2 Biochemical Assays for PI3Kalpha, PI3Kbeta (Kinase-Glo Format)
The kinase reaction is performed in a final volume of 50 μl per well of a half area COSTAR, 96 well plate. The final concentrations of ATP and phosphatidyl inositol in the assay are 5 μM and 6 μg/mL, respectively. The reaction is started by the addition of PI3 kinase, e.g. PI3 kinase α.
The components of the assay are added per well as follows: • 10 μl test compound in 5% DMSO per well in […]. • Total activity is determined by addition 10 μl of 5% vol/vol DMSO in the first 4 wells of column 1 and the last 4 wells of column 12. • The background is determined by addition of 10 μM control compound to the last 4 wells of column 1 and the first 4 wells of column 12. • 2 mL ‘Assay mix’ are prepared per plate: • 1.912 mL of HEPES assay buffer • 8.33 μl of 3 mM stock of ATP giving a final concentration of 5 μM per well • 1 μl of [^33P]ATP on the activity date giving 0.05 μCi per well • 30 μl of 1 mg/mL PI stock giving a final concentration of 6 μg/mL per well • 5 μl of 1 M stock MgCl2 giving a final concentration of 1 mM per well • 20 μl of the assay mix are added per well. • 2 mL ‘Enzyme mix’ are prepared per plate (x* μl PI3 kinase p110α in 2 mL of kinase buffer). The ‘Enzyme mix’ is kept on ice during addition to the assay plates. * The volume of enzyme is dependent on the enzymatic activity of the batch in use. • 20 μl ‘Enzyme mix’ are added/well to start the reaction. • The plate is then incubated at room temperature for 90 minutes. • The reaction is terminated by the addition of 50 μl WGA-SPA bead (wheat germ agglutinin-coated Scintillation Proximity Assay beads) suspension per well. • The assay plate is sealed using TopSeal-S (heat seal for polystyrene microplates, PerkinElmer LAS [Deutschland] GmbH, Rodgau, Germany) and incubated at room temperature for at least 60 minutes. • The assay plate is then centrifuged at 1500 rpm for 2 minutes using the Jouan bench top centrifuge (Jouan Inc., Nantes, France). • The assay plate is counted using a Packard TopCount, each well being counted for 20 seconds.
In a more preferred assay, the kinase reaction is performed in a final volume of 10 μl per well of a low volume non-binding CORNING, 384 well black plate (Cat. No. #3676). The final concentrations of ATP and phosphatidyl inositol (PI) in the assay are 1 μM and 10 μg/mL, respectively. The reaction is started by the addition of ATP.
The components of the assay are added per well as follows: […]

PI3K gamma = PI3K gamma (Homo sapiens (Human), UniProt P48736); assay: Biochemical assay for PI3Kgamma (Adapta TR-FRET format)
PI3K gamma, sequence (P48736 whole entry): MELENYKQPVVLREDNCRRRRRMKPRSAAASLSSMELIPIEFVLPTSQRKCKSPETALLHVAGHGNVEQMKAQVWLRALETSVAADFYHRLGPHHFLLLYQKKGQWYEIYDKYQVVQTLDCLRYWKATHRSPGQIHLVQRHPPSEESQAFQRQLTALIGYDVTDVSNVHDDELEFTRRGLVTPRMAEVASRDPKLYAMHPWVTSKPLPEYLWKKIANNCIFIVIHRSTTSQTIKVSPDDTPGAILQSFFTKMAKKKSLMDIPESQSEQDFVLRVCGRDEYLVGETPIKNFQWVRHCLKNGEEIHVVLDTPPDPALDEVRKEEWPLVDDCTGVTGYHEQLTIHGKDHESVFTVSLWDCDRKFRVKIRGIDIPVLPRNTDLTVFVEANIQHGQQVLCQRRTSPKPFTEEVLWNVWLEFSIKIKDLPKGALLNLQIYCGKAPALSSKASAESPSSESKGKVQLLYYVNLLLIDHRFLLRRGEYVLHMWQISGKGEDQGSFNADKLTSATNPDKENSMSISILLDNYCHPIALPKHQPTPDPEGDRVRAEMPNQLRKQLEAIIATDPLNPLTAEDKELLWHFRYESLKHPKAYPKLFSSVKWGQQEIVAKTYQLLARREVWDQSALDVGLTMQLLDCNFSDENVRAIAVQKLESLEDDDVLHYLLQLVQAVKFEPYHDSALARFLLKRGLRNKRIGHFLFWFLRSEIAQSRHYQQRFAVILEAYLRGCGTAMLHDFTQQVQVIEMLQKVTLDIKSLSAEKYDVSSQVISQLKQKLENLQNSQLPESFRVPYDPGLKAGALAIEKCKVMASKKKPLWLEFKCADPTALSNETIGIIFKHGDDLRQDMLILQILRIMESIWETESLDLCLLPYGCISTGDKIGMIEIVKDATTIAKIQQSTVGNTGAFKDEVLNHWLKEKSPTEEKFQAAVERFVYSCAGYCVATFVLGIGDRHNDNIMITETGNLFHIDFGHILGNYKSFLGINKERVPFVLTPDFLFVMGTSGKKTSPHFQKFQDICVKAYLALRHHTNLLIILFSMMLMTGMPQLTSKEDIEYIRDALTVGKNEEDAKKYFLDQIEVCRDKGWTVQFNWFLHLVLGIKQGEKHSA
Description: (§1) For the enzymatic assays, the preparation of PI3K gene constructs, protein expression and purification for HTS are described in WO2012/004299. […] The TR-FRET Adapta™ Universal Kinase Assay Kit was purchased from Invitrogen Corporation (Carlsbad/CA, USA) (Cat. No. PV5099). The kit contains the following reagents: Adapta Eu-anti-ADP Antibody (Europium labeled anti-ADP antibody in HEPES buffered saline, Cat. No. PV5097), Alexa Fluor® 647-labeled ADP tracer (Alexa Fluor® 647-labeled ADP tracer in HEPES buffered saline, Cat. No. PV5098), proprietary TR-FRET dilution buffer pH 7.5 (Cat. No. PV3574). PIK3CD substrate Phosphatidylinositol was obtained from Invitrogen (vesicules consisting of 2 mM PI in 50 mM HEPES pH7.5; Cat. No. PV5371). PIK3CG substrate Phosphatidylinositol-4,5-bisphosphate (PIP(4,5)2 was obtained from Invitrogen (PIP2:PS large unilamellar vesicules consisting of 1 mM PI P2: 19 mM PS in 50 mM HEPES pH7.5, 3 mM MgCl2, 1 mM EGTA; Cat. No. PV5100). Time-Resolved Fluorescence Resonance Energy Transfer (TR-FRET) is a technology based on energy transfer between two adjacent dyes, from an excited electron in one dye (the donor) to an electron of an adjacent dye (the acceptor) through resonance, then released as a photon. This energy transfer is detected by an increase in the fluorescence emission of the acceptor, and a decrease in the fluorescence emission of the donor. TR-FRET assays for protein kinases use a long-lifetime lanthanide Terbium or Europium chelates as the donor species which overcome interference from compound autofluorescence or light scatter from precipitated compounds, by introducing a delay after excitation by a flashlamp excitation source. Results are often expressed as a ratio of the intensities of the acceptor and donor fluorophores. The ratiometric nature of such a value corrects for differences in assay volumes between wells, as well as corrects for quenching effects due to colored compounds. The Adapta™ assay can be divided into two phases: a kinase reaction phase and an ADP detection phase. In the kinase reaction phase, all kinase reaction components are added to the well and the reaction is allowed to incubate for a set period of time specific for each kinase. After the reaction, a detection solution of Eu-labeled anti-ADP antibody, Alexa Fluor® 647-labeled ADP tracer, and EDTA (to stop the kinase reaction) are added to the assay well. ADP formed by the kinase reaction will displace the Alexa Fluor® 647-labeled ADP tracer from the antibody, resulting in a decrease in TR-FRET signal. In the presence of an inhibitor, the amount of ADP formed by the kinase reaction is reduced, and the resulting intact antibody-tracer interaction maintains a high TR-FRET signal. In the Adapta™ assay, the donor (Europium-anti-ADP antibody) is excited at 340 nm and will transfer its energy to the acceptor (Alexa Fluor® 647-labeled ADP tracer). The emission from the Alexa Fluor® 647 can be monitored with a filter centered at 665 nm because it is located between the emission peaks of the donor, which is measured at 615/620 nm. 50 nL of compound dilutions were dispensed onto white 384-well small volume polystyrene plate as described in section 2.2. Then 5 μL of PI3Kgamma and PI3Kdelta and lipid substrate (PI or PIP2:PS) followed by 5 μL of ATP (final assay volume 10 μL) are incubated at RT. […] Reactions were stopped with 5 μL of a mixture of EDTA containing the Eu-labeled anti-ADP antibody and the Alexa Fluor® 647-labeled ADP tracer in TR-FRET dilution buffer (proprietary to IVG). Plates are read 15 to 60 mins later in a Synergy2 reader using an integration time of 0.4 seconds and a delay of 0.05 seconds. […] The control for the 0% inhibition was given by the solvent vehicle of the compounds (90% DMSO in H2O). Data are analyzed using Excel fit software or Graphpad Prism. EC50 values were derived by fitting a sigmoidal dose-response curve to a plot of assay readout over inhibitor concentration. […]

PI3K delta = PI3K delta (Homo sapiens (Human), UniProt O00329); assay: Biochemical assay for PI3Kdelta (Adapta TR-FRET format)
PI3K delta, sequence (O00329 2-1044): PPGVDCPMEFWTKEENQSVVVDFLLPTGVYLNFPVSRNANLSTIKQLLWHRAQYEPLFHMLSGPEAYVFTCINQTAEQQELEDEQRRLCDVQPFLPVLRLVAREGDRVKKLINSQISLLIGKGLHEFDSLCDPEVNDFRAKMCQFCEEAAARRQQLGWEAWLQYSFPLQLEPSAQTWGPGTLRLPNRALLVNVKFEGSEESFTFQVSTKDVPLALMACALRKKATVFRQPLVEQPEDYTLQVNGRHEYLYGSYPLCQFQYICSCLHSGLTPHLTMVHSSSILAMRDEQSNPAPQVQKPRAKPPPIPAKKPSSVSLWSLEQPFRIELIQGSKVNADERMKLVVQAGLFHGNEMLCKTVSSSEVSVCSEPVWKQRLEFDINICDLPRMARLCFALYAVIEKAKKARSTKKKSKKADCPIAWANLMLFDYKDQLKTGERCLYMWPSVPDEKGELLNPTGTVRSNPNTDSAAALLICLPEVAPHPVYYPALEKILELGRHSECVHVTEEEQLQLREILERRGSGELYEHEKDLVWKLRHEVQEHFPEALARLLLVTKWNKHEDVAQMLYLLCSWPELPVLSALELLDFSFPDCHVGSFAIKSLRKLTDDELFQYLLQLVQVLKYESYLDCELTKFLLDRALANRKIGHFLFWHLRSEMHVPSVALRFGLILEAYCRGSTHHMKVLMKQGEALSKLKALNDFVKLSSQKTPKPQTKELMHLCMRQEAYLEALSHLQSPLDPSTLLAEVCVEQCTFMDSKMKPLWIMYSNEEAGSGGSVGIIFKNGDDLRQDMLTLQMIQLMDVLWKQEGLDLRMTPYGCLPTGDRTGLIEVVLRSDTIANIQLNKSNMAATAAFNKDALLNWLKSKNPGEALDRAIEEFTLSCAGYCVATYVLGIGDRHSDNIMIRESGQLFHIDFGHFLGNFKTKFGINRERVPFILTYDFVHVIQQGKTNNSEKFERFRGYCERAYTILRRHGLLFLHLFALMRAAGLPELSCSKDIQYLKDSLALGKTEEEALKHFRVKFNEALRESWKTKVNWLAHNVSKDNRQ
PI3K delta, sequence (P27986 461-568 partner): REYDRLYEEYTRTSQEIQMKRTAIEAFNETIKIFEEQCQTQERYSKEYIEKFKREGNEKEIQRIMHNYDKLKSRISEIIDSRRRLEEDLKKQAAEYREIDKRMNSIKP
Description: as §1

PI3K alpha, sequence (P42336 21-1068): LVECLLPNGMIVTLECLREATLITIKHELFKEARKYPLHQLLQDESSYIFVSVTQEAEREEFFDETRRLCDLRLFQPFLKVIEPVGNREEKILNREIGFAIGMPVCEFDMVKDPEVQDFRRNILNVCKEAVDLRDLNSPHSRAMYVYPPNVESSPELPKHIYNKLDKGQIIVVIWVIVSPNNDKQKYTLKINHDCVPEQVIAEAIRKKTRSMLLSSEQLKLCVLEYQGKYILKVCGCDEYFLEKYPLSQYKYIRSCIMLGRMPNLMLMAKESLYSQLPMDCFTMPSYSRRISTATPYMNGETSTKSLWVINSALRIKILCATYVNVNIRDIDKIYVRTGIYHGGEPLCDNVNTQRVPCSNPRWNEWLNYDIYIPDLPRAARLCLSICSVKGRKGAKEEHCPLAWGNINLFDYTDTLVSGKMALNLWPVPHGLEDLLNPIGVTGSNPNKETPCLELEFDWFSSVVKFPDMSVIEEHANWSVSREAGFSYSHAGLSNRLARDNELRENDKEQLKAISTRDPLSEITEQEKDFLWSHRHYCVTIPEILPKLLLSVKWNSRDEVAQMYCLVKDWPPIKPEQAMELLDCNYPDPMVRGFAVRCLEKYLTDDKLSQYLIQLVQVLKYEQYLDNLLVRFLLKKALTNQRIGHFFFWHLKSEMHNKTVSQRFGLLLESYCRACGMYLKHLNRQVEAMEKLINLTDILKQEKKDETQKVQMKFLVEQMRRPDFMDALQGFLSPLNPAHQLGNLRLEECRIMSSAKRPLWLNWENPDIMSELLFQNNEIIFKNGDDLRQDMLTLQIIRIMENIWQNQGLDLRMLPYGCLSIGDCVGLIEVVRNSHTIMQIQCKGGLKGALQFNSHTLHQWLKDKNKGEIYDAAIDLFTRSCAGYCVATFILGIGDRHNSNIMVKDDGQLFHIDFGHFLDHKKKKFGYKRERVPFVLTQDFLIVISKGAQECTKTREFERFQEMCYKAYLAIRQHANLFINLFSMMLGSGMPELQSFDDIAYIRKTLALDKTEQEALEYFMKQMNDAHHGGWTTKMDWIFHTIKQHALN
PI3K alpha, sequence (P27986 461-568 partner): as the sequence (P27986 461-568 partner) above

Row | IC50 (PI3K alpha) | IC50 (PI3K gamma) | IC50 (PI3K delta) | SMILES
1 | 260 nM | 120 nM | 7 nM | Cc1nc(N)nc(N2CCC[C@H]2c2nc3cccc(-c4cnn(C)c4)c3c(=O)n2-c2ccccc2)c1C#N [Example 13, (S)-2-Amino-4-methyl-6-(2-(5-(1-methyl-1H-pyrazol-4-yl)-4-oxo-3-phenyl-3,4-dihydroquinazolin-2-yl)pyrrolidin-1-yl)pyrimidine-5-carbonitrile]
2 | 920 nM | 330 nM | 74 nM | Cc1ccccc1-n1c([C@@H]2CCCN2c2ncnc(N)c2C#N)nc2cccc(-c3cnn(C)c3)c2c1=O [Example 14, (S)-4-Amino-6-(2-(5-(1-methyl-1H-pyrazol-4-yl)-4-oxo-3-(otolyl)-3,4-dihydroquinazolin-2-yl)pyrrolidin-1-yl)pyrimidine-5-carbonitrile]
3 | > 10000 nM | > 10000 nM | > 10000 nM | Cn1cnc(-c2cccc3nc([C@@H]4CCCN4c4ncnc(N)c4C#N)n(-c4ccccc4)c(=O)c23)c1 [Example 15, (S)-4-Amino-6-(2-(5-(1-methyl-1H-imidazol-4-yl)-4-oxo-3-phenyl-3,4-dihydroquinazolin-2-yl)pyrrolidin-1-yl)pyrimidine-5-carbonitrile]
4 | 180 nM | 48 nM | 7 nM | Cc1nc(N)nc(N2C[C@@H](O)C[C@H]2c2nc3cccc(-c4cnn(C)c4)c3c(=O)n2-c2ccccc2)c1C#N [Example 16, 2-Amino-4-((2S,4S)-4-hydroxy-2-(5-(1-methyl-1H-pyrazol-4-yl)-4-oxo-3-phenyl-3,4-dihydroquinazolin-2-yl)pyrrolidin-1-yl)-6-methylpyrimidine-5-carbonitrile]
5 | 1200 nM | 940 nM | 21 nM | Cc1nc(N)nc(N2CCC[C@H]2c2nc3cccc(-c4cncnc4)c3c(=O)n2-c2ccccc2)c1C#N [Example 17, (S)-2-Amino-4-methyl-6-(2-(4-oxo-3-phenyl-5-(pyrimidin-5-yl)-3,4-dihydroquinazolin-2-yl)pyrrolidin-1-yl)pyrimidine-5-carbonitrile]
6 | 56 nM | 89 nM | 14 nM | COc1cncc(-c2cccc3nc([C@@H]4CCCN4c4nc(N)nc(C)c4C#N)n(-c4ccccc4)c(=O)c23)c1 [Example 18, (S)-2-Amino-4-(2-(5-(5-methoxypyridin-3-yl)-4-oxo-3-phenyl-3,4-dihydroquinazolin-2-yl)pyrrolidin-1-yl)-6-methylpyrimidine-5-carbonitrile]
7 | 820 nM | 390 nM | 17 nM | Cc1ncc(-c2cccc3nc([C@@H]4CCCN4c4nc(N)nc(C)c4C#N)n(-c4ccccc4)c(=O)c23)cn1 [Example 19, (S)-2-Amino-4-methyl-6-(2-(5-(2-methylpyrimidin-5-yl)-4-oxo-3-phenyl-3,4-dihydroquinazolin-2-yl)pyrrolidin-1-yl)pyrimidine-5-carbonitrile]
8 | 260 nM | 140 nM | 15 nM | Cc1nc(N)nc(N2CCC[C@H]2c2nc3cccc(-c4cccnc4)c3c(=O)n2-c2ccccc2)c1C#N [Example 20, (S)-2-Amino-4-methyl-6-(2-(4-oxo-3-phenyl-5-(pyridin-3-yl)-3,4-dihydroquinazolin-2-yl)pyrrolidin-1-yl)pyrimidine-5-carbonitrile]
9 | 260 nM | 270 nM | 24 nM | COc1ccc(-c2cccc3nc([C@@H]4CCCN4c4nc(N)nc(C)c4C#N)n(-c4ccccc4)c(=O)c23)cn1 [Example 21, (S)-2-Amino-4-(2-(5-(6-methoxypyridin-3-yl)-4-oxo-3-phenyl-3,4-dihydroquinazolin-2-yl)pyrrolidin-1-yl)-6-methylpyrimidine-5-carbonitrile]
10 | 580 nM | 130 nM | 5 nM | COc1ncc(-c2cccc3nc([C@@H]4C[C@H](O)CN4c4nc(N)nc(C)c4C#N)n(-c4ccccc4)c(=O)c23)cn1 [Example 22, 2-Amino-4-((2S,4S)-4-hydroxy-2-(5-(2-methoxypyrimidin-5-yl)-4-oxo-3-phenyl-3,4-dihydroquinazolin-2-yl)pyrrolidin-1-yl)-6-methylpyrimidine-5-carbonitrile]
11 | 170 nM | 81 nM | 5 nM | Cc1nc(N)nc(N2C[C@@H](O)C[C@H]2c2nc3cccc(-c4cccnc4)c3c(=O)n2-c2ccccc2)c1C#N [Example 24, 2-Amino-4-((2S,4S)-4-hydroxy-2-(4-oxo-3-phenyl-5-(pyridin-3-yl)-3,4-dihydroquinazolin-2-yl)pyrrolidin-1-yl)-6-methylpyrimidine-5-carbonitrile]
12 | 48 nM | 65 nM | 5 nM | COc1cncc(-c2cccc3nc([C@@H]4C[C@H](O)CN4c4nc(N)nc(C)c4C#N)n(-c4ccccc4)c(=O)c23)c1 [Example 25, 2-Amino-4-((2S,4S)-4-hydroxy-2-(5-(5-methoxypyridin-3-yl)-4-oxo-3-phenyl-3,4-dihydroquinazolin-2-yl)pyrrolidin-1-yl)-6-methylpyrimidine-5-carbonitrile]
13 | 530 nM | 410 nM | 6 nM | Cc1nc(N)nc(N2C[C@@H](O)C[C@H]2c2nc3cccc(-c4cncnc4)c3c(=O)n2-c2ccccc2)c1C#N [Example 26, 2-Amino-4-((2S,4S)-4-hydroxy-2-(4-oxo-3-phenyl-5-(pyrimidin-5-yl)-3,4-dihydroquinazolin-2-yl)pyrrolidin-1-yl)-6-methylpyrimidine-5-carbonitrile]
